Read-outs that look alike come from different tables or passages of the source.

For one data set, the target named is T1, human JAK3 (Homo sapiens, UniProt P52333).
T1 sequence (P52333 1-1124): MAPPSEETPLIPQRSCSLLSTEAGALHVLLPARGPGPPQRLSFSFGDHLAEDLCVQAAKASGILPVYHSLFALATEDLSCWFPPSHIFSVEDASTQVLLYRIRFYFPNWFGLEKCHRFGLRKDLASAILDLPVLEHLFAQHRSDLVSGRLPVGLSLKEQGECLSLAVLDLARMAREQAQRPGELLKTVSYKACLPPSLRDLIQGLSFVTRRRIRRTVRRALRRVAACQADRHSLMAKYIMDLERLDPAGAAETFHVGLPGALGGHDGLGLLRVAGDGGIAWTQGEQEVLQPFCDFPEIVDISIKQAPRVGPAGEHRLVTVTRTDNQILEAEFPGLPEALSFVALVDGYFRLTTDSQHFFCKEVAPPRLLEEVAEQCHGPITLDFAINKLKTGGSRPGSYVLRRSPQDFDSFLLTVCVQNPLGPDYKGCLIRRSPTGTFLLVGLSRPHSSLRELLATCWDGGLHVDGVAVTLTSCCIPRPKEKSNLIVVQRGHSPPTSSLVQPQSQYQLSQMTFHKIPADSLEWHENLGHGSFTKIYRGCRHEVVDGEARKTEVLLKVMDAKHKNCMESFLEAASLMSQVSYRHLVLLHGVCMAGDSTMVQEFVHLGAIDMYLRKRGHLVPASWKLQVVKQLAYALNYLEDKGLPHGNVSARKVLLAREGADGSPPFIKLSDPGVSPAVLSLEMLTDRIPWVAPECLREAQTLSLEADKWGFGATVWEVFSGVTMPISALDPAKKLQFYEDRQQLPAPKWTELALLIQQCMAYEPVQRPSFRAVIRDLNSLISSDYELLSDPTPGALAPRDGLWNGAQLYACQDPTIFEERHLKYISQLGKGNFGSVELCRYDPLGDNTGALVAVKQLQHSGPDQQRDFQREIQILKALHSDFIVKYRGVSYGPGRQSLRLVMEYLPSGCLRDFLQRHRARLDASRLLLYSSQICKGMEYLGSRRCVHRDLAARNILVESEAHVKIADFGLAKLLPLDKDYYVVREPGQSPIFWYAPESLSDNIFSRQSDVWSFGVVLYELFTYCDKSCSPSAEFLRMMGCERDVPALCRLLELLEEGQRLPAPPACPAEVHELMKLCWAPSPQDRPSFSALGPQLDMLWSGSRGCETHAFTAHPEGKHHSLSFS
Description: JAK3 immune complex kinase assay (JAK3 immunoprecipitated from KL2 EBV-transformed B cell line). The format is biochemical. As to the method:
(§1) In JAK3 immune complex kinase assays (17, 22), KL-2 EBV-transformed human lymphoblastoid B cells (native JAK3 kinase assays) or insect ovary cells (recombinant JAK3 kinase assays) were lysed with NP-40 lysis buffer (50 mM Tris, pH 8, 150 mM NaCl, 5 mM EDTA, 1% NP-40, 100 μM sodium orthovanadate, 100 μM sodium molybdate, 8 μg/ml aprotinin, 5 μg/ml leupeptin, and 500 μM PMSF) and centrifuged 10 min at 13000× g to remove insoluble material. Samples were immunoprecipitated with antisera prepared against JAK3. The antisera were diluted and immune complexes collected by incubation with 15 μl protein A Sepharose. After 4 washes with NP-40 lysis buffer, the protein A Sepharose beads were washed once in kinase buffer (20 mM MOPS, pH7, 10 mM MgCl2) and resuspended in the same buffer. Reactions were initiated by the addition of 25 μCi [γ^32P] ATP (5000 Ci/mMole) and unlabeled ATP to a final concentration of 5 μM. Reactions were terminated by boiling for 4 min in SDS sample buffer. Samples were run on 9.5% SDS polyacrylamide gels and labeled proteins were detected by autoradiography. Following electrophoresis, kinase gels were dried onto Whatman 3M filter paper and subjected to phosphorimaging on a Molecular Imager (Bio-Rad, Hercules, Calif.) as well as autoradiography on film. For each drug concentration, a kinase activity index (KA) was determined by comparing the kinase activity in phosphorimager units (PIU) to that of the baseline sample. In some experiments, cold kinase assays were performed, as described by (Uckun, F. M., et al., Clin. Can. Res. 4: 901-912, 1998).
We first used immune complex kinase assays to compare the effects of the synthesized dimethoxyquinazoline compounds on the enzymatic activity of human JAK3 immunoprecipitated from the KL2 EBV-transformed human lymphoblastoid B cell line.

A further data set addresses T2, recombinant murine JAK3 (Mus musculus, UniProt Q62137).
T2 sequence (Q62137 1-1100): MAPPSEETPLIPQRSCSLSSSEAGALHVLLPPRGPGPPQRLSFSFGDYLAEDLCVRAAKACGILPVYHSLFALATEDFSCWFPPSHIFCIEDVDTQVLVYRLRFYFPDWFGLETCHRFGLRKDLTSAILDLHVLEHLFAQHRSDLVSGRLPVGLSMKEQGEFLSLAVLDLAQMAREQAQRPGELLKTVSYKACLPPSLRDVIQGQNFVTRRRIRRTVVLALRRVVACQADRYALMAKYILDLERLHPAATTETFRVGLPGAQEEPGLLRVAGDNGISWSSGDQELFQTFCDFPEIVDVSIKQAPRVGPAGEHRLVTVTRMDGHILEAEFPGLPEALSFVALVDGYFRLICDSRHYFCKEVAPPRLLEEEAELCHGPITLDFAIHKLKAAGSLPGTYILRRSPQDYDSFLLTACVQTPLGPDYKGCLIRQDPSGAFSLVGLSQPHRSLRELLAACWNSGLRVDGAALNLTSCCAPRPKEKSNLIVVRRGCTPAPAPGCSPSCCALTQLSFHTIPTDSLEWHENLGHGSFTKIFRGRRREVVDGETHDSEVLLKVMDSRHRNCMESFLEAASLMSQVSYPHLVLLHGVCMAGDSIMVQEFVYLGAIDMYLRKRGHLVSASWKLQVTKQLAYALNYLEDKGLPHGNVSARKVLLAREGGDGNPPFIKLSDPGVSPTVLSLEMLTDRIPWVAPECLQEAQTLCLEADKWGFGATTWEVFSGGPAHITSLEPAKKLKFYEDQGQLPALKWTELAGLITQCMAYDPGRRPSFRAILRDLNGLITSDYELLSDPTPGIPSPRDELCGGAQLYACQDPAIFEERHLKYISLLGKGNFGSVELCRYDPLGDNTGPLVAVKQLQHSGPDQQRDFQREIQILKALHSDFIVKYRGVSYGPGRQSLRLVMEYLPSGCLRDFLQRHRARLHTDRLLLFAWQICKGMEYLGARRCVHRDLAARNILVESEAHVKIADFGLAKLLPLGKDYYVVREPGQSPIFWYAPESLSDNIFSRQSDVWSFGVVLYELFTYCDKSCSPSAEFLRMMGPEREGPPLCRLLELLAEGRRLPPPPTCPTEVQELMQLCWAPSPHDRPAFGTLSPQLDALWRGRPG
Description: Recombinant JAK3 immune complex kinase assay (baculovirus, Sf21). The class given is biochemical. How it is done:
Sf21 (IPLB-SF21-AE) cells (Vassilev, A., et al., J. Biol. Chem. 274: 1646-1656, 1999) derived from the ovarian tissue of the fall armyworm Spodotera frugiperda, were obtained from Invitrogen (Carlsbad, Calif.) and maintained at 26-28° C. in Grace's insect cell medium supplemented with 10% FBS and 1.0% antibiotic/antimycotic (GIBCO-BRL). Stock cells were maintained in suspension at 0.2-1.6×10^6/ml in 600 ml total culture volume in 1 L Bellco spinner flasks at 60-90 rpm. Cell viability was maintained at 95-100% as determined by trypan blue dye exclusion. Sf21 cells were infected with a baculovirus expression vector for BTK, SYK, JAK1, JAK2, or JAK3. Cells were harvested, lysed (10 MM Tris pH7.6, 100 mM NaCl, 1% Nonidet P40, 10% glycerol, 50 mM NaF, 100 μM Na3VO4, 50 μg/ml phenylmethylsulfonyl fluoride, 10 μg/ml aprotonin, 10 μg/ml leupeptin), the kinases were immunoprecipitated from the lysates, and their enzymatic activity assayed, as reported (Vassilev, A., et al., J. Biol. Chem. 274: 1646-1656, 1999; Uckun, F. M., et al., Science. 22: 1096-1100, 1996; Goodman, P. A., et al., J. Biol. Chem. 273: 17742-48, 1998; Mahajan, S., et al., Mol. Cell. Biol. 15: 5304-11, 1995; and Uckun, F. M., et al., Science. 267: 886-91, 1995). The immunoprecipitates were subjected to Western blot analysis as previously described (Vassilev, A., et al., J. Biol. Chem. 274: 1646-1656, 1999; and Uckun, F. M., et al., Science. 22: 1096-1100, 1996).
as §1, with “Following electrophoresis, kinase gels were dried onto Whatman 3M filter paper and subjected to phosphorimaging on a Molecular Imager (Bio-Rad, Hercules, Calif.) as well as autoradiography on film.” left out, “In some experiments, cold kinase assays were performed, as described by (Uckun, F. M., et al., Clin. Can. Res. 4: 901-912, 1998).” left out

The mark [1] stands for this setting: JAK3 kinase assay, KL2 cell-derived human JAK3, read-out: IC50.

Take `COc1cc2ncnc(Nc3cc(Br)c(O)c(Br)c3)c2cc1OC` [WHI-P97, 4-(3′,5′-dibromo-4′-hydroxyl-phenyl)-amino-6,7-dimethoxyquinazoline]: the IC50 at human JAK3 (setting [1]) came to 11 µM.

The molecule `COc1cc2ncnc(Nc3ccc(C)c(Br)c3)c2cc1OC` [WHI-P111] yielded a melting point of 225 to 228 °C. For the same molecule, the IC50 at human JAK3 (setting [1]) was above 300 µM.

Molecule `COc1cc2ncnc(Nc3ccccc3O)c2cc1OC` [WHI-P132] registered a half-inhibitory concentration (IC50) against human JAK3 above 300 µM. Moreover, the “activity against JAK3 (in words)” value at human JAK3 (biological assays) was “inactive against JAK3”.

Take `COc1cc2ncnc(Nc3ccc(O)c(Cl)c3)c2cc1OC` [WHI-P197]: the melting point was 245 °C (dec.).

For the molecule `COc1cc2ncnc(Nc3ccccc3)c2cc1OC` [WHI-P258, 4-(phenyl)-amino-6,7-dimethoxyquinazoline], the IC50 at human JAK3 (setting [1]) was above 300 µM.

As for `COc1cc2ncnc(Nc3cccc(Br)c3)c2cc1OC` [WHI-P79], the IC50 on human JAK3 (setting [1]) was above 300 µM.

Regarding `COc1cc2ncnc(Nc3ccc(O)c(Br)c3)c2cc1OC` [WHI-P154, 4-(3′bromo4′-hydroxyl-phenyl)-amino-6,7-dimethoxyquinazoline], the IC50 on recombinant murine JAK3 (recombinant murine JAK3) is 128 µM; on recombinant murine JAK3 (recombinant murine JAK3, converted from μg/ml), around 128 µM.

For the origin of these results see patent US6469013B2, “Therapeutic compounds” (Parker Hughes Institute, priority 1998, dated 2002).
